In US20040235742A1, “Water channel opener compositions and medicinal compositions for ophthalmic use” (SANTEN PHARMACEUTICAL CO., LTD., priority 1999, published 2004):

Key:
[1] = Lacrimation stimulating activity of odorant substances in mice; type: in vivo; settings: for Change in lacrimation output after 15 minutes (%): 30 mg/kg into the caudal vein, relative to the average of two measurements before administration
Protocol: Then, using (R)-(−)-carvone, (+)-pregon, borneol, trans-4-methylcyclohexanol, and menthol, all of which are odorant substances, each dissolved in 0.1% hydrogenated castor oil-saline, the lacrimation-stimulating activities of these substances were evaluated in vivo. The method used was as follows.
The tear fluid was collected from the left eye of mice at 15-min intervals using a glass microcapillary tube (aspiration capacity 0.5 μL/32 mm). The amount of aspirated tear fluid was measured in length (mm) using calipers and converted to μL for use as a marker of lacrimation output. Mice were anesthetized by intraperitoneal administration of Nembutal Anesthetic Solution (0.2 mL/10 g body weight, dosage 60 mg/kg). After the loss of pain reflex was confirmed in the mice, the measurement of lacrimation output was started. Measurements were invariably carried out at 15-min intervals from the start to the end. After two initial measurements made 15 minutes apart, each test substance (dosage 30 mg/kg) was immediately administered into the caudal vein of mice at a ratio of 0.1 mL/10 g body weight. Thereafter, the collection of tear fluid was carried out at 15-min intervals.
The change in lacrimation output was expressed in the percentage of the lacrimation output at each measurement relative to the average of the lacrimation outputs at two initial measurements prior to administration of each test substance.

[2] = Combined use of an odorant substance and pilocarpine hydrochloride on lacrimation output in mice; type: in vivo
Protocol: The effect of the combined use of (R)-(−)carvone, i.e. the odorant substance used in Example 1, and pillocarpine hydrochloride was evaluated. The method used was as follows. The tear fluid was collected from the left eye of mice at 15-min intervals using a glass microcapillary tube (aspiration capacity 0.5 μL/32 mm). The amount of aspirated tear fluid was measured in length (mm) using calipers and converted to μL for use as a marker of lacrimation output. Mice were anesthetized by intraperitoneal administration of Nembutal Anesthetic Solution (0.2 mL/10 g body weight, dosage 60 mg/kg). After the loss of pain reflex was confirmed in the mice, the measurement of lacrimation output was started. Measurements were invariably carried out at 15-min intervals from the start to the end. After two initial measurements made 15 minutes apart, the test substance was immediately administered into the caudal vein of mice at a ratio of 0.1 mL/10 g body weight. Then, the measurement was repeated at 15-min intervals. Immediately after the measurement of lacrimation output at 15 minutes following administration of the test substance, […] pilocarpine hydrochloride was administered subcutaneously at 0.1 mL/10 g body weight (dosage 5 mg/kg). The collection of tear fluid was further carried out 4 times at 15-min intervals. […] The results on (R)-(−)-carvone (dosage 30 mg/kg) are shown in the graph in FIG. 3. […]

sodium-potassium ATPase = settings: olfactory tissue; Life Sciences, 20, 1051-1062 (1977); cited from earlier work
lens aldose reductase = target: T1, lens aldose reductase (Homo sapiens, UniProt P15121); settings: Arch. Pharm. Res., 11, 312-314 (1988); cited from earlier work
T1 construct: host or cells: lens

Row | Structure (SMILES) | Change in lacrimation output after 15 minutes (%) [1] [%] | further results
1 | C[C@H]1CC[C@H](O)CC1 [Trans-4-methylcyclohexanol, trans-4-methylcyclohexanol] | 85.4 | –
2 | CC1CCC(C(C)C)C(O)C1 (stereo not shown) [Menthol, menthol] | 88.1 | –
3 | CC1(C)C2CCC1(C)C(O)C2 (stereo not shown) [Borneol, borneol] | 97.5 | –
4 | C=C(C)[C@@H]1CC=C(C)C(=O)C1 [(R)-(−)-carvone] | 61.5 | increase in lacrimation output ([1]; Example 3, 15 to 30 minutes after administration): not less than 60%; change in lacrimation output, combined use with pilocarpine hydrochloride ([2]; (R)-(-)-carvone 30 mg/kg i.v., then 0.005% pilocarpine hydrochloride s.c. (dosage 5 mg/kg) 15 minutes later, FIG. 3): marked increases in lacrimation; duration of the lacrimation effect, combined use with pilocarpine ([2]; Example 4 compared with Example 3): further prolongation of the effect; effect on sodium-potassium ATPase (sodium-potassium ATPase): influence; inhibition of lens aldose reductase (lens aldose reductase): inhibit
5 | CC(C)=C1CC[C@@H](C)CC1=O [(+)-pregon] | 70.2 | –
